Data as given in US4127687A, “Prevention of fouling of marine structures such as boat hulls” (Rohm and Haas Company, priority 1976, dated 1978).
≈ marks a conversion by molar mass, not a printed value. Where “and” joins values, the source holds several entries; their conditions need not be identical. Identical values can stand only once.

Columns and labels:
[1] = Amount of toxicant remaining in the test container after membrane diffusion raft tests; format: physicochemical; set-up: key: 0: empty or trace; +: some; + +: ample; settings: after completion of membrane diffusion raft tests
Text: (§1) A known quantity of the test compound is placed into a cylindrical plastic container whose open end is then covered with a membrane of known porosity; the complete unit is attached to the appropriate raft panel so that the poison can freely diffuse into the free water layer around it. Regular inspections, recording time and quantity of settlement, allow a life history of each membrane trial to be constructed. Each raft panel contains 35 compounds to be evaluated together with 4 standard poisons and 1 non-toxic membrane for control.
(§2) After the completion of membrane tests the contents of all containers are checked visually for poison loss. An empty container indicates an unacceptably high solubility for long term effectiveness; where the poison loss is low the compound is tested in one of two ways depending on its performance against fouling.
^b Amount of toxicants remaining in the test container after the
completion of the membrane diffusion raft tests: 0 = empty or trace, + =

barnacle = assay: Membrane Diffusion Raft Trials, barnacle control; format: in vivo, barnacles; settings: membrane test, average 15 to 16 weeks of immersion
Text: (§3) 1). FIELD TESTS: - Membrane Diffusion Raft Trials
(§4) A specially constructed raft provides three types
(§5) a). Waterline Well illuminated, aerated
(§6) b). Flats Poorly illuminated deeper
as §1
(§7) The behavior on the raft can thus be compared with that of the standard poisons and the non-toxic control. At normal loading a membrane over the standard poisons would be free from macro-fouling after six months immersion. Compounds showing selective effects against restricted groups of fouling organisms also show up by membrane testing.
as §2
(§8) In the membrane tests, the results of approximately 140 compounds evaluated appear in Table 1. The symbols "0" means no detactable effect, the symbol "+" indicates the compound is active against the given fouling organism, and the symbol "++" means that the compound appears to be effective over at least about a four month period for essentially preventing fouling activity by the given organism. In the Table, "weed" designates a grass-like algal growth common in sea water.
(§9) Membrane Test results are of an average 15 to 16 weeks of immersion,
(§10) ^a 0 = none, + = some, + + = effective.
^f The 1975 Spring settlement of barnacles was very meager and the […]

weed = assay: Membrane Diffusion Raft Trials, weed control; format: in vivo, grass-like algal growth common in sea water; settings: membrane test, average 15 to 16 weeks of immersion
Text: as §3, §4, §5, §6, §1, §7, §2, §8, §9, §10

[2] = Water solubility by UV spectrophotometric method; format: physicochemical; settings: for solubility: water, saturated solution, Table 1, read-out: Solubility by UV method
Protocol: The water solubilities of several isothiazolones were determined by UV spectrophotometric measurements of saturated aqueous solution of each compound in comparison with measurement of solutions of carefully prepared known concentration as outlined in the following example.
DETERMINATION OF SOLUBILITY OF 5-CHLORO-2-(4-FLUOROPHENYL)-4-METHYL-3-ISOTHIAZOLONE OF EXAMPLE 115
A sample of 5-chloro-2-(4-fluorophenyl)-4-methyl-3-isothiazolone (0.0406 g., 1.67 × 10^-4 mole) was dissolved in 50 ml. of methanol. A 5 ml. aliquot of the solution was diluted to 1000 ml. with deionized water, providing a solution of 1.67 × 10^-5 moles/liter concentration. An ultraviolet spectrum of this solution was run using a 10 cm. cell. The absorbance (As) at the wave length of maximum absorption (279 nm.) was 1.208. The molar absorptivity, AM, was calculated from the relationship
where b and c are path length or cell thickness and concentration respectively. Thus, AM was [formula]
Another sample of the compound (0.3-0.5 g.) was stirred vigorously in 40 ml. of deionized water for approximately 72 hrs. to give a saturated solution. The mixture was filtered through very fine filter paper (Whatman No. 50) to remove all suspended solid. Small portions of the filtrate were diluted with water by various factors until an approximately mid-scale absorbance was obtained upon running an ultraviolet spectrum. Such an absorbance was obtained at a dilution of 10. The absorbance was 0.975 in a 10 cm. cell. Using the value for AM obtained earlier, in the equation

Row | SMILES | Contents at the end of test (amount of toxicants remaining in the test container) [1] | Barnacle Control (barnacle) | Weed Control (weed) | solubility [2] | solubility thermodynamic at 72 h ([2]; deionized water, stirred approximately 72 hrs., UV, read-out: concentration of the saturated solution) | solubility at 72 h ([2]; deionized water, stirred approximately 72 hrs., UV, read-out: solubility of this compound)
1 | CCCCCCCCCCCCCCCCCCn1sccc1=O [Example 8] | + + | 0 | 0 | – | – | –
2 | O=c1ccsn1CCc1ccc(Cl)cc1 [Example 9] | 0 | 0 | 0 | – | – | –
3 | O=c1ccsn1-c1ccccc1 [Example 11] | 0 | 0 | 0 | – | – | –
4 | CCCCCCC(C)n1sc(Cl)cc1=O (stereo not drawn) [Example 18] | – | – | – | 175 µg/mL (≈ 706 µM) | – | –
5 | CC(C)CCCC(C)n1sc(Cl)cc1=O (stereo not drawn) [Example 19] | – | – | – | 190 µg/mL (≈ 767 µM) | – | –
6 | CCC(C)CC(CC)n1sc(Cl)cc1=O (stereo not drawn) [Example 20] | – | – | – | 300 µg/mL (≈ 1210 µM) | – | –
7 | CC(C)(C)CC(C)(C)n1sc(Cl)cc1=O [Example 21] | – | – | – | 200 µg/mL (≈ 807 µM) | – | –
8 | CCCCCCCCCCCCCCn1sc(Cl)cc1=O [Example 24] | + + | + + | 0 | – | – | –
9 | CCCCCCCCCCCCCCCCn1sc(Cl)cc1=O [Example 25] | + + | 0 | 0 | – | – | –
10 | CC1CC(n2sc(Cl)cc2=O)CC(C)(C)C1 (stereo not drawn) [Example 28] | – | – | – | 185 µg/mL (≈ 712 µM) | – | –
11 | CC(c1ccccc1)n1sc(Cl)cc1=O (stereo not drawn) [Example 30] | – | – | – | 420 µg/mL (≈ 1750 µM) | – | –
12 | O=c1cc(Cl)sn1Cc1ccccc1 [Example 31] | – | – | – | 390 µg/mL (≈ 1730 µM) | – | –
13 | O=c1cc(Cl)sn1-c1ccc(Cl)c(Cl)c1 [Example 37] | + + | + | + | – | – | –
14 | O=c1cc(Cl)sn1-c1ccc(Cl)c(C(F)(F)F)c1 [Example 40] | + + | 0 | + | – | – | –
15 | O=c1c(Cl)csn1Cc1ccc(Cl)cc1 [Example 46] | + + | 0 | + | – | – | –
16 | CCCCCCCCCCCCn1scc(Br)c1=O [Example 50] | + + | + | 0 | – | – | –
17 | O=c1c(Br)csn1CCc1ccccc1 [Example 52] | + | 0 | 0 | – | – | –
18 | O=c1c(Br)csn1-c1ccc(Cl)cc1 [Example 54] | + + | 0 | 0 | – | – | –
19 | CCCCCCC(C)n1sc(Cl)c(Cl)c1=O (stereo not drawn) [Example 60] | – | – | – | 50 µg/mL (≈ 177 µM) | – | –
20 | CC(C)CCCC(C)n1sc(Cl)c(Cl)c1=O (stereo not drawn) [Example 61] | – | – | – | 55 µg/mL (≈ 195 µM) | – | –
21 | CCC(C)CC(CC)n1sc(Cl)c(Cl)c1=O (stereo not drawn) [Example 62] | – | – | – | 85 µg/mL (≈ 301 µM) | – | –
22 | CC1CC(n2sc(Cl)c(Cl)c2=O)CC(C)(C)C1 (stereo not drawn) [Example 68] | – | – | – | 45 µg/mL (≈ 153 µM) | – | –
23 | CC(c1ccccc1)n1sc(Cl)c(Cl)c1=O (stereo not drawn) [Example 70] | – | – | – | 50 µg/mL (≈ 182 µM) | – | –
24 | O=c1c(Cl)c(Cl)sn1-c1cccc(Cl)c1 [Example 76] | + + | 0 | + | – | – | –
25 | O=c1c(Cl)c(Cl)sn1-c1cc(Cl)cc(Cl)c1 [Example 77] | + + | 0 | 0 | – | – | –
26 | Cc1ccc(-n2sc(Cl)c(Cl)c2=O)cc1Cl [Example 81] | + + | 0 | 0 | – | – | –

Row | SMILES | Contents at the end of test (amount of toxicants remaining in the test container) [1] | Barnacle Control (barnacle) | Weed Control (weed) | solubility [2] | solubility thermodynamic at 72 h ([2]; deionized water, stirred approximately 72 hrs., UV, read-out: concentration of the saturated solution) | solubility at 72 h ([2]; deionized water, stirred approximately 72 hrs., UV, read-out: solubility of this compound)
27 | O=c1c(Cl)c(Cl)sn1-c1ccc([N+](=O)[O-])cc1 [Example 82] | + + | 0 | 0 | – | – | –
28 | CCCCc1ccc(-n2sc(Cl)c(Cl)c2=O)cc1 [Example 83] | + + | + | 0 | – | – | –
29 | CCCCCCCCCCn1sc(Cl)c(Br)c1=O [Example 89] | + + | 0 | 0 | – | – | –
30 | O=c1c(Br)c(Cl)sn1C1CCCCC1 [Example 90] | – | – | – | 45 µg/mL (≈ 152 µM) | – | –
31 | O=c1c(Br)c(Cl)sn1CCc1ccc(Cl)cc1 [Example 92] | + | 0 | 0 | – | – | –
32 | Cn1sc(Br)c(Br)c1=O [Example 94] | 0 | 0 | + | – | – | –
33 | CCCCCCCCCCn1sc(Br)c(Br)c1=O [Example 96] | + + | 0 | 0 | – | – | –
34 | CCCCCCCCCCCCn1sc(Br)c(Br)c1=O [Example 97] | + + | 0 | 0 | – | – | –
35 | Cc1c(Cl)sn(C)c1=O [Example 100] | 0 | 0 | 0 | – | – | –
36 | CCCCCCCCn1sc(Br)c(C)c1=O [Example 102] | 0 | + | + | – | – | –
37 | CCCCC(CC)Cn1sc(Cl)c(C)c1=O (stereo not drawn) [Example 103] | – | – | – | 102 µg/mL (≈ 390 µM) | – | –
38 | CCCCCCCCCCCCn1sc(Cl)c(C)c1=O [Example 105] | + + | + | 0 | – | – | –
39 | CCCCCCCCCCCCCCn1sc(Cl)c(C)c1=O [Example 106] | + + | 0 | 0 | – | – | –
40 | Cc1c(Cl)sn(-c2ccccc2Cl)c1=O [Example 112] | – | – | – | 23 µg/mL (≈ 88.4 µM) | – | –
41 | Cc1c(Cl)sn(-c2ccc(F)cc2)c1=O [Example 115, 5-chloro-2-(4-fluorophenyl)-4-methyl-3-isothiazolone] | – | – | – | 35 µg/mL (≈ 144 µM) | 135 µM and 32.8 µg/mL | 33 µg/mL (≈ 135 µM)
42 | Cc1c(Cl)sn(-c2ccc(Br)cc2)c1=O [Example 116] | – | – | – | 7 µg/mL (≈ 23 µM) | – | –
43 | Cc1ccc(-n2sc(Cl)c(C)c2=O)cc1 [Example 120] | – | – | – | 60 µg/mL (≈ 250 µM) | – | –
44 | Cc1c(Cl)sn(-c2ccc(Oc3ccccc3)cc2)c1=O [Example 124] | + + | 0 | 0 | – | – | –
45 | Cc1c(Cl)sn(-c2cccc(C(F)(F)F)c2)c1=O [Example 129] | – | – | – | 12 µg/mL (≈ 40.9 µM) | – | –
46 | Cc1c(Cl)sn(-c2ccc(C(F)(F)F)cc2)c1=O [Example 130] | – | – | – | 7 µg/mL (≈ 23.8 µM) | – | –
47 | Cc1c(Cl)sn(-c2ccc(Cl)c(C(F)(F)F)c2)c1=O [Example 131] | + + | 0 | 0 | – | – | –
48 | Cc1cc(-n2sc(Cl)c(C)c2=O)ccc1Br [Example 133] | + + | 0 | 0 | – | – | –
49 | Cc1c(Cl)sn(-c2ccc(Cl)cc2Cl)c1=O [Example 135] | – | – | – | 4 µg/mL (≈ 13.6 µM) | – | –
50 | Cc1c(Cl)sn(-c2cc(Cl)cc(Cl)c2)c1=O [Example 136] | – | – | – | 3 µg/mL (≈ 10.2 µM) | – | –
51 | Cc1csn(-c2cccc(Cl)c2)c1=O [Example 138] | + + | 0 | + | – | – | –
52 | Cc1csn(-c2ccc(Cl)c(Cl)c2)c1=O [Example 140] | + + | 0 | 0 | – | – | –
